Measurements from patent US9987299B2, “Methods of improving RNAi in well-differentiated airway epithelia” (University of Iowa Research Foundation, priority 2014, dated 2018).

Experiments:
CFTR channel activity = assay: Transepithelial short-circuit current and conductance in HAE; type: cell-based, human; conditions: control epithelia with or without PAF, or PAF and NC1 treated cells; sequential addition of agents
Human HPRT mRNA [1] = assay: HPRT mRNA silencing by DsiRNA-Transductin in well-differentiated HAE (RT-qPCR); type: cell-based
Experimental: FIG. 1. […] (a) Well-differentiated HAE cultures grown at the ALI were incubated in adding HPRT-targeting or control NC1 DsiRNA (250 nM) formulated with Transductin containing 0.1 or 0.01 mg LOS (HPRT-targeting DsiRNAs) or 0.1 mg LOS (NC1 DsiRNA). After 4 hours, the apical surface was rinsed and 24 hours later, target RNA levels quantified by RT-qPCR. All mRNA levels were normalized to NC1-treated samples. Mean levels were calculated from three biological replicates, each done in triplicate. ***p<0.001, **p<0.01 (Student's t-test). […] Samples were normalized to NC1-treated cells. ***p<0.001, **p<0.01 (Student's t-test). […] PAFRa was present throughout transfection in cells pre-treated with the reagent. Cells were harvested and RNA quantified 24 hrs later. Samples were normalized to NC1-treated cells. **p<0.01 (Student's t-test).
FIG. 3. Spiperone improves RNAi responses in DsiRNA transduced cells. HAE were pre-treated with various small molecules at the concentration indicated. The drugs were added to the apical surface and the basolateral media for 6 hours. Both surfaces were then washed and HPRT or NC1 DsiRNA formulated with Transductin added to the apical surface. The cells were washed after 4 hours, and RT-qPCR done on cell lysates harvested 24 hours later.
Human airway epithelial cells were obtained from trachea and bronchi of lungs removed for organ donation from non-CF individuals. Cells were isolated by enzyme digestion as previously described. Following enzymatic dispersion, cells were seeded at a density of 5×10^5 cells/cm^2 onto collagen-coated, 0.6 cm^2 semi permeable membrane filters (Millipore polycarbonate filters; Millipore Corp., Bedford, Mass.). The cells were maintained at 37° C. in a humidified atmosphere of 5% CO2 air. Twenty-four hours after plating, the apical media was removed and the cells were maintained at an air-liquid interface (ALI) to allow differentiation of the epithelium. The culture medium consisted of 1:1 ratio mix of Dulbecco's modified Eagle's medium (DMEM)/Ham's F12, 5% Ultroser G (Biosepra S A, Cedex, France), 100 U/ml penicillin, 100 μg/ml streptomycin, 1% nonessential amino acids and 0.12 U/ml insulin. Studies were performed on well-differentiated epithelia approximately 4 to 6 weeks after initiation of the ALI cultures conditions. HEp-2 cells were maintained in MEM substituted with 10% fetal bovine serum and 100 U/ml penicillin.
PAF was purchased from Sigma-Aldrich. The reagent was reconstituted in ethanol and used in the experiment at a concentration of 200 nM or as described in the figures. PAF was added to the transfection mixture at the apical surface as well as to the basolateral media. PAFRa (WEB 2086) was purchased from Sigma-Aldrich. […] The reagent was incubated with the cells throughout the transfection period.
All the small molecules tested were purchased from Sigma-Aldrich. The chemicals were reconstituted in appropriate solutions as recommended by the manufacturer. The epithelia were pre-treated with drugs for 6 hours at concentrations used in the CMAP study or noted in the published literature. Following drug treatment, the epithelia were transduced with DsiRNA as described above.
For well-differentiated airway epithelia, transfection was performed mostly according to the manufacturer's protocol. In all cases, the apical surface of epithelia was rinsed twice with PBS before adding the transfection mixture to the apical surface. DsiRNAs were used at a concentration of 250 nM. The mixture was left on the cells for 4 hours after which the medium was removed, the apical surface rinsed with PBS and the cells incubated further for 24 hours. For all experiments, a minimum of 3 biological replicates, in triplicate, were done.
Total RNA was isolated using SV96 RNA isolation kit (Promega, Madison, Wis.), according to manufacturer's protocol. […]

Human CFTR mRNA = assay: CFTR mRNA silencing by CFTR DsiRNA-Transductin in well-differentiated HAE (RT-qPCR); type: cell-based; conditions: CFTR DsiRNA with simultaneous PAF treatment or spiperone pre-treatment
Experimental: (§1) FIG. 4. […] Alternatively, spiperone was applied apically and basolaterally to well-differentiated HAE for 6 hours, and then removed by rinsing before incubation for 4 hours with CFTR-targeting or NC1 DsiRNAs complexed with Transductin. In both cases, 24 hours after transfection, and RNA levels quantified by RT-qPCR. (b) A representative immunoblot from similarly treated wells, but cells were lysed and proteins visualized after immunoprecipitation with anti-CFTR antibody. Alpha-tubulin was used as a loading control. (c) Densitometry readings of immunoblots with results normalized to NC1 treated samples. In all cases, data are from 3 biological replicates and are mean±SD. ***p<0.001, **p<0.01 (Student's t-test).
For well-differentiated airway epithelia, transfection was performed mostly according to the manufacturer's protocol. […]
Total RNA was isolated using SV96 RNA isolation kit (Promega, Madison, Wis.), according to manufacturer's protocol. […] One-fifteenth of the cDNA was then amplified and analyzed by using the 5′-nuclease assay in a 7900 Real Time PCR System (Applied Biosystems, Foster city, CA) using primer-probe pairs reaction buffer and Immolase DNA polymerase (Bioline, Taunton, Mass.). […] Absolute quantification of an mRNA target sequence within an unknown sample was determined by reference to a standard curve. […]

CFTR protein = CFTR protein levels, immunoprecipitation and immunoblot with densitometry in HAE; type: cell-based, human
Experimental: as §1
HAE were rinsed with PBS and lysed in RIPA buffer (1% NP-40, 0.5% sodium deoxycholate, 0.1% SDS, 50 mM Tris, protease inhibitors [complete; mini, EDTA-free; Roche Biochemicals, Indianapolis, Ind.]) for 30 minutes at 4° C. The lysate were centrifuged in a table top centrifuge at 14,000 rpm for 20 minutes at 4° C. The supernatant was quantified by BCA protein assay kit (Pierce, Rockford, Ill.). Thirty micrograms of protein per lane was separated on a 10% Tris-HCL Criterion precast gel (Bio-Rad, Hercules, Calif.) for western blot analysis. The protein was transferred to Polyvinylidene difluoride membrane and then was probed with goat anti-RSV antibody purchased from Meridian Life Sciences (Memphis, Tenn.). The membrane was imaged, and then stripped with Restore Western Blot Stripping Buffer (Thermo Scientific, Lafayette, Colo.) for 15 minutes. The membrane was rinsed with Tris-buffered saline-Tween (TBS-T) and blocked in 5% bovine serum albumin (Research Products International Corp, Mt. Prospect, Ill.). The membrane was then reprobed with α-tubulin (Sigma-Aldrich).

Human HPRT mRNA [2] = conditions: Transductin alone or combined with enhancers of macropinocytosis; reference [17]; cited from earlier work
[3] = reference [38]; cited from earlier work

Compound: CC(C)Cn1c(=O)n(C)c(=O)c2[nH]cnc21 [isobutylmethylxantine (IBMX), isobutylmethylxantine]
- cAMP-activated transepithelial short-circuit current (Isc and ΔIsc) and conductance (Gt) (CFTR channel activity): increased

Compound: O=C(CCCN1CCC2(CC1)C(=O)NCN2c1ccccc1)c1ccc(F)cc1 [Spiperone]
- spiperone dose-response on silencing (Human HPRT mRNA [1]; increasing doses, 6 hours pretreatment (FIG. 9)): marginal increases in silencing with increasing doses
- silencing of HPRT mRNA levels (Human HPRT mRNA [1]; spiperone 10 μM pretreatment before DsiRNA transduction): 25%
- silencing of CFTR mRNA levels (Human CFTR mRNA): approximately 30%
- CFTR protein levels compared to controls (CFTR protein; PAF or spiperone and CFTR DsiRNA-Transductin, immunoprecipitation, western blot): reduced CFTR protein levels
- fully glycosylated CFTR band C (CFTR protein; densitometry, normalized to NC1 treated samples): significantly decreased

Compound: epidermal growth factor (NSDSECPLSHDGYCLHDGVCMYIEALDKYACNCVVGYIGERCQYRDLKWWELR; Epidermal growth factor; UniProt P01133 971-1023, looked up) [EGF, enhancer of macropinocytosis]
- gene silencing in well differentiated HAE with Transductin-DsiRNA, previously observed (Human HPRT mRNA [2]): very modest knockdown

Compound: CCCCCCCCCCCCCC(=O)O[C@@H]1[C@@H](C)[C@@]2(O)[C@@H](C=C(CO)C[C@]3(O)C(=O)C(C)=C[C@@H]23)[C@@H]2C(C)(C)[C@]12OC(C)=O [phorbol ester]
- gene silencing in well differentiated HAE with Transductin-DsiRNA plus phorbol ester (Human HPRT mRNA [1]; applicant's unpublished data): better silencing
- toxicity [3]: toxic and unsuitable for repeated applications or use in vivo

Compound: O=C(CNc1ccc2ccccc2c1)N/N=C/c1cc(Br)c(O)c(Br)c1O [GlyH-101]
- cAMP-activated transepithelial short-circuit current (Isc and ΔIsc) and conductance (Gt) (CFTR channel activity): decreased both values

Compound: Cc1nnc2n1-c1sc(CCC(=O)N3CCOCC3)cc1C(c1ccccc1Cl)=NC2 [WEB2086]
- inhibition of HPRT silencing in cells transduced with LOS or PAF (Human HPRT mRNA [1]; 1 μM PAFRa): partially inhibited
- inhibition of HPRT silencing of LOS- or PAF-assisted transduction (Human HPRT mRNA [1]; 100 μM PAFRa, pre- or post-treatment): completely inhibited
